How the values were obtained:
[1] = Average particle size (ζ-Average) and PDI by dynamic light scattering (Zetasizer Nano ZSP); assay type: physicochemical
Summary of the method: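 Lipid nanoparticles dispersed in PBS(−) were sized by dynamic light scattering, giving the ζ-Average diameter and polydispersity index (PDI).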

[2] = siRNA/mRNA encapsulation rate by Ribogreen reagent (section IV); assay type: physicochemical; conditions: for % siRNA encapsulation: F7siRNA-loaded LNP, 50:10:38.5:1.5, N/P ratio 6; for % mRNA encapsulation: FlucmRNA-loaded LNP, 50:10:38.5:1.5
Summary of the method: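 LNPs diluted in TE buffer to 8 μg/mL nucleic acid for surface RNA, or to 1.2 μg/mL with 1% Triton X-100 for total RNA. RiboGreen fluorescence (ex 485/em 528 nm) quantified against a Triton-containing standard curve (0-2.5 μg/mL). Encapsulation % = (total − surface)/total × 100.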

liver = assay: In vivo Fluc activity of FlucmRNA-loaded LNP by in vivo imaging, liver; conditions: Balb/c mice, 6 hours; for Fluc Activity in liver: FlucmRNA-loaded LNP i.v. 0.1 mg mRNA/kg
Summary of the method: (§1)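 Female Balb/c mice, 7 weeks old, received LNP i.v. at 0.1 mg mRNA/kg. At 6 h, luciferin was given via tail vein at 1.5 mg per mouse, and liver and spleen luminescence was imaged as Avg Radiance [p/s/cm2/sr] near 560 nm.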

spleen = assay: In vivo Fluc activity of FlucmRNA-loaded LNP by in vivo imaging, spleen; conditions: Balb/c mice, 6 hours; for Fluc Activity in spleen: FlucmRNA-loaded LNP i.v. 0.1 mg mRNA/kg; for Fluc activity in the spleen, compared with CL4F6 / Fluc activity in the spleen, compared with CL15F6: 0.1 mg mRNA/kg; for Fluc activity in the spleen, compared with CL4F6: versus LNP comprising CL4F6 (Tables 5 and 6); for Fluc activity in the spleen, compared with CL15F6: versus LNP comprising CL15F6 (Table 7)
Summary of the method: as §1

F7 = assay: In vivo F7 knockdown, plasma F7 enzyme activity (BIOPHEN FVII), Balb/c mice; conditions: for F7 enzyme activity (%) / F7 enzyme activity (Ratio using MC3 as 1): i.v. 0.025 mg siRNA/kg, plasma at 24 hours; for F7 enzyme activity (%): untreated mice as 100%; for knockdown activity, compared with MC3: F7siRNA-loaded LNP, versus LNP comprising MC3; for F7 enzyme activity (Ratio using MC3 as 1): relative plasma F7 activity of MC3 LNP as 1
Summary of the method: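 Female Balb/c mice, 5 weeks old, received F7 siRNA lipid nanoparticles i.v. at 0.025 mg siRNA/kg; plasma F7 activity measured chromogenically (BIOPHEN FVII) 24 h later. Values are % of untreated mice, also expressed as a ratio to MC3-containing nanoparticles set at 1.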

[3] = Storage stability of FlucmRNA-loaded LNP at −80, 5, 25 and 40° C.; assay type: physicochemical; conditions: for period for which quality remained good, −80° C.: maximum storage period 1 week; for period for which quality remained good, 5° C. / period for which quality remained good, 25° C. / period for which quality remained good, 40° C. (weeks) / period for which quality remained good, 40° C. (days): maximum storage period 5 weeks
Summary of the method: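 FlucmRNA-loaded LNPs held at −80, 5, 25 or 40° C; at each time point size, PDI and encapsulation measured. Quality deemed maintained while size stays within ±20 nm of preparation day, PDI ≤0.2 and encapsulation ≥80%; value is the period meeting all three.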

[4] = F7siRNA-loaded LNP, 50:10:38.5:1.5, N/P ratio 6
[5] = FlucmRNA-loaded LNP, 50:10:38.5:1.5
[6] = FlucmRNA-loaded LNP, lipid:DSPC:cholesterol:DMG-PEG2K 50:10:38.5:1.5

| PDI [1, 4] | ζ-Average (nm) [1, 4] [nm] | PDI [1, 5] | ζ-Average (nm) [1, 6] [nm] | % siRNA encapsulation [2] [%] | % mRNA encapsulation [2] [%] | period for which quality remained good, −80° C. [3] [week] | period for which quality remained good, 5° C. [3] | period for which quality remained good, 25° C. [3] | period for which quality remained good, 40° C. (weeks) [3] | period for which quality remained good, 40° C. (days) [3] [day days] | SMILES | Fluc Activity in liver (liver) | Fluc Activity in spleen (spleen) | F7 enzyme activity (%) (F7) | Fluc activity in the spleen, compared with CL4F6 (spleen) | Fluc activity in the liver, compared with CL15F6 (liver; 0.1 mg mRNA/kg, versus LNP comprising CL15F6 (Table 7)) | Fluc activity in the spleen, compared with CL15F6 (spleen) | knockdown activity, compared with MC3 (F7) | F7 enzyme activity (Ratio using MC3 as 1) (F7) | quality at production (storage stability criteria) ([3]; criteria: PDI 0.2 or less, encapsulation 80% or more) |
| --- | --- | --- | --- | --- | --- | --- | --- | --- | --- | --- | --- | --- | --- | --- | --- | --- | --- | --- | --- | --- |
| 0.019 | 94.76 | 0.021 | 79.45 | 99.8 | 99.7 | 1 | 5 weeks | 5 weeks | 5 weeks | – | CCCCCCCCCC(CCCCCCC)C(=O)OCCCCCCC(O)(CCCCCCOC(=O)C(CCCCCCC)CCCCCCCCC)CCCCN(CCC)CCC (centres unmarked) [CL4F 11-7] | 1.23E+08 Avg Radiance [p/s/cm2/sr] | 2.03E+06 Avg Radiance [p/s/cm2/sr] | 14.1 | – | – | – | – | – | – |
| 0.022 | 114.40 | 0.030 | 102.80 | 99.9 | 99.6 | 1 | 5 weeks | 5 weeks | – | 0 | CCCCCCCC(CCC)C(=O)OCCCCCCC(O)(CCCCCCOC(=O)C(CCC)CCCCCCC)CCCCN(CCC)CCC (centres unmarked) [CL4F 9-3] | 2.96E+07 Avg Radiance [p/s/cm2/sr] | 8.17E+06 Avg Radiance [p/s/cm2/sr] | 11.7 | higher Fluc activity | – | – | – | – | – |
| 0.029 | 104.9 | 0.023 | 99.31 | 101.1 | 99.78 | 1 | 5 weeks | 5 weeks | 5 weeks | – | CCCCCCCCCC(CCCCCCCCC)C(=O)OCCCCCCC(O)(CCCCCCOC(=O)C(CCCCCCCCC)CCCCCCCCC)CCCCOC(=O)C1CCN(C)CC1 [CL15F 11-9] | 3.66E+07 Avg Radiance [p/s/cm2/sr] | 7.55E+06 Avg Radiance [p/s/cm2/sr] | – | – | higher Fluc activity | higher Fluc activity | higher knockdown activity | 0.50 | – |
| 0.255 | 230.7 | 0.316 | 312.10 | 91.5 | 66.7 | – | – | – | – | – | CCCCC(CCCC)C(=O)OCCCCCCC(O)(CCCCCCOC(=O)C(CCCC)CCCC)CCCCOC(=O)C1CCN(C)CC1 [CL15F 6-4] | 1.84E+06 Avg Radiance [p/s/cm2/sr] | 3.39E+07 Avg Radiance [p/s/cm2/sr] | – | – | – | higher Fluc activity | – | 2.28 | Does not meet the criteria for “good” at production |
| 0.023 | 92.25 | 0.044 | 83.05 | 99.7 | 96.3 | 0 | 0 week weeks | 0 week weeks | – | 0 | CCCCCCCCCCCC(CCC)C(=O)OCCCCCCC(O)(CCCCCCOC(=O)C(CCC)CCCCCCCCCCC)CCCCN(CCC)CCC (centres unmarked) [CL4F 13-3] | 7.34E+07 Avg Radiance [p/s/cm2/sr] | 7.30E+06 Avg Radiance [p/s/cm2/sr] | 8.4 | higher Fluc activity | – | – | – | – | – |
| 0.081 | 126.0 | 0.048 | 142.90 | 100.3 | 98.62 | 0 | 5 weeks | 5 weeks | 5 weeks | – | CCCCCCCCCCCC(CCC)C(=O)OCCCCCCC(O)(CCCCCCOC(=O)C(CCC)CCCCCCCCCCC)CCCCOC(=O)C1CCN(C)CC1 (centres unmarked) [CL15F 13-3] | 3.51E+06 Avg Radiance [p/s/cm2/sr] | 6.11E+06 Avg Radiance [p/s/cm2/sr] | – | – | – | higher Fluc activity | – | 1.11 | – |
| 0.021 | 120.20 | 0.057 | 109.80 | 100.1 | 99.9 | 1 | 2 weeks | 5 weeks | 1 week weeks | – | CCCCCC(CCCCC)C(=O)OCCCCCCC(O)(CCCCCCOC(=O)C(CCCCC)CCCCC)CCCCN(CCC)CCC [CL4F 7-5] | 4.56E+07 Avg Radiance [p/s/cm2/sr] | 1.47E+07 Avg Radiance [p/s/cm2/sr] | 35.7 | higher Fluc activity | – | – | – | – | – |
| 0.024 | 115.60 | 0.068 | 93.60 | 99.6 | 98.6 | 0 | 5 weeks | 1 weeks | – | 0 | CCCCCCCCC(CC)C(=O)OCCCCCCC(O)(CCCCCCOC(=O)C(CC)CCCCCCCC)CCCCN(CCC)CCC (centres unmarked) [CL4F 10-2] | 3.02E+07 Avg Radiance [p/s/cm2/sr] | 6.40E+06 Avg Radiance [p/s/cm2/sr] | 11.4 | higher Fluc activity | – | – | – | – | – |
| 0.003 | 111.7 | 0.047 | 113.90 | 100.5 | 99.4 | 1 | 5 weeks | 5 weeks | 5 weeks | – | CCCCCCCCC(CCCCC)C(=O)OCCCCCCC(O)(CCCCCCOC(=O)C(CCCCC)CCCCCCCC)CCCCOC(=O)C1CCN(C)CC1 (centres unmarked) [CL15F 10-5] | 2.70E+06 Avg Radiance [p/s/cm2/sr] | 7.55E+06 Avg Radiance [p/s/cm2/sr] | – | – | – | higher Fluc activity | – | 1.33 | – |
| 0.021 | 95.37 | 0.041 | 84.92 | 100.1 | 99.8 | 1 | 5 weeks | 5 weeks | – | 0 | CCCCCCCCC(CCCC)C(=O)OCCCCCCC(O)(CCCCCCOC(=O)C(CCCC)CCCCCCCC)CCCCN(CCC)CCC (centres unmarked) [CL4F 10-4] | 1.20E+08 Avg Radiance [p/s/cm2/sr] | 6.70E+06 Avg Radiance [p/s/cm2/sr] | 1.7 | higher Fluc activity | – | – | higher knockdown activity | – | – |
| 0.013 | 89.34 | 0.039 | 79.68 | 100.1 | 99.8 | 1 | 5 weeks | 5 weeks | 5 weeks | – | CCCCCCCCC(CCCCCCC)C(=O)OCCCCCCC(O)(CCCCCCOC(=O)C(CCCCCCC)CCCCCCCC)CCCCN(CCC)CCC (centres unmarked) [CL4F 10-7] | 1.19E+08 Avg Radiance [p/s/cm2/sr] | 2.03E+06 Avg Radiance [p/s/cm2/sr] | 4.1 | – | – | – | – | – | – |

— patent US12458605B2, “Lipid nanoparticle” (National University Corporation Hokkaido University, priority 2020, dated 2025)
